Experiments:
[1] = The drug is tested on Z-004 corresponding to metagenome with ENA study accession number: PRJEB37062 and ENA sample accession number: ERS12561804 for biotransformation under anaerobic condition. The drug concentrations were measured over 9 timepoints collected between 0 and 24 hours of incubation by liquid-chromatography-coupled mass spectrometry (LC–MS); details: 2 µM
[2] = The drug is tested on WLS-039 corresponding to human gut metagenome with ENA study accession number: PRJEB37062 and ENA sample accession number: ERS12561746 for biotransformation under anaerobic condition. The drug concentrations were measured over 9 timepoints collected between 0 and 24 hours of incubation by liquid-chromatography-coupled mass spectrometry (LC–MS); details: 2 µM
[3] = human gut metagenome, 24 h, 2 µM
[4] = The drug is tested on Z-022 corresponding to mouse gut metagenome with ENA study accession number: PRJEB37062 and ENA sample accession number: ERS12561821 for biotransformation under anaerobic condition. The drug concentrations were measured over 9 timepoints collected between 0 and 24 hours of incubation by liquid-chromatography-coupled mass spectrometry (LC–MS); details: 2 µM
[5] = The drug is tested on Z-016 corresponding to mouse gut metagenome with ENA study accession number: PRJEB37062 and ENA sample accession number: ERS12561815 for biotransformation under anaerobic condition. The drug concentrations were measured over 9 timepoints collected between 0 and 24 hours of incubation by liquid-chromatography-coupled mass spectrometry (LC–MS); details: 2 µM
[6] = human gut metagenome, 24 h, 2 µM; remark: listed apart in the source
[7] = human gut metagenome, 24 h, 2 µM; remark: listed apart in the source
[8] = The drug is tested on Z-011 corresponding to mouse gut metagenome with ENA study accession number: PRJEB37062 and ENA sample accession number: ERS12561811 for biotransformation under anaerobic condition. The drug concentrations were measured over 9 timepoints collected between 0 and 24 hours of incubation by liquid-chromatography-coupled mass spectrometry (LC–MS); details: 2 µM
[9] = human gut metagenome, 24 h, 2 µM; remark: listed apart in the source
Further: call rule not given here.

Structure (SMILES): CN(C)CCC=C1c2ccccc2C=Cc2ccccc21 [CYCLOBENZAPRINE]
- Bacterial Biotransformation [1]: Compound metabolized
- Bacterial Biotransformation [2]: Compound metabolized
- Bacterial Biotransformation [3]: Compound metabolized
- Bacterial Biotransformation [4]: Compound NOT metabolized
- Bacterial Biotransformation [5]: Compound NOT metabolized
- Bacterial Biotransformation [6]: Compound metabolized
- Bacterial Biotransformation [7]: Compound metabolized
- Bacterial Biotransformation [8]: Compound NOT metabolized
- Bacterial Biotransformation [9]: Compound metabolized

Structure (SMILES): C[C@@H]1C[C@H]2[C@@H]3CCC4=CC(=O)C=C[C@]4(C)[C@@]3(F)[C@@H](O)C[C@]2(C)[C@@]1(O)C(=O)CO [DEXAMETHASONE]
- Bacterial Biotransformation [1]: Compound metabolized
- Bacterial Biotransformation [2]: Compound NOT metabolized
- Bacterial Biotransformation [3]: Compound NOT metabolized
- Bacterial Biotransformation [4]: Compound metabolized
- Bacterial Biotransformation [5]: Compound NOT metabolized
- Bacterial Biotransformation [6]: Compound NOT metabolized
- Bacterial Biotransformation [7]: Compound NOT metabolized
- Bacterial Biotransformation [8]: Compound NOT metabolized
- Bacterial Biotransformation [9]: Compound NOT metabolized

Structure (SMILES): O=C(Nc1ccccc1)OCC(CN1CCCCC1)OC(=O)Nc1ccccc1 (stereo unspecified) [DIPERODON]
- Bacterial Biotransformation [1]: Compound metabolized
- Bacterial Biotransformation [2]: Compound NOT metabolized
- Bacterial Biotransformation [3]: Compound NOT metabolized
- Bacterial Biotransformation [4]: Compound NOT metabolized
- Bacterial Biotransformation [5]: Compound NOT metabolized
- Bacterial Biotransformation [6]: Compound NOT metabolized
- Bacterial Biotransformation [7]: Compound NOT metabolized
- Bacterial Biotransformation [8]: Compound NOT metabolized
- Bacterial Biotransformation [9]: Compound NOT metabolized

Structure (SMILES): CC(C)N(CCC(C(N)=O)(c1ccccc1)c1ccccn1)C(C)C.O=P(O)(O)O (stereo unspecified) [DISOPYRAMIDE PHOSPHATE]
- Bacterial Biotransformation [1]: Compound NOT metabolized
- Bacterial Biotransformation [2]: Compound NOT metabolized
- Bacterial Biotransformation [3]: Compound metabolized
- Bacterial Biotransformation [4]: Compound NOT metabolized
- Bacterial Biotransformation [5]: Compound NOT metabolized
- Bacterial Biotransformation [6]: Compound NOT metabolized
- Bacterial Biotransformation [7]: Compound NOT metabolized
- Bacterial Biotransformation [8]: Compound NOT metabolized
- Bacterial Biotransformation [9]: Compound NOT metabolized

Structure (SMILES): C[C@@H](CO)NC(=O)[C@@H]1C=C2c3cccc4[nH]cc(c34)C[C@H]2N(C)C1.O=C(O)/C=C\C(=O)O [ERGONOVINE MALEATE]
- Bacterial Biotransformation [1]: Compound NOT metabolized
- Bacterial Biotransformation [2]: Compound metabolized
- Bacterial Biotransformation [3]: Compound metabolized
- Bacterial Biotransformation [4]: Compound NOT metabolized
- Bacterial Biotransformation [5]: Compound NOT metabolized
- Bacterial Biotransformation [6]: Compound metabolized
- Bacterial Biotransformation [7]: Compound metabolized
- Bacterial Biotransformation [8]: Compound NOT metabolized
- Bacterial Biotransformation [9]: Compound NOT metabolized

Structure (SMILES): CCN(CC)C(C)CN1c2ccccc2Sc2ccccc21 (stereo unspecified) [ETHOPROPAZINE]
- Bacterial Biotransformation [1]: Compound metabolized
- Bacterial Biotransformation [2]: Compound metabolized
- Bacterial Biotransformation [3]: Compound metabolized
- Bacterial Biotransformation [4]: Compound NOT metabolized
- Bacterial Biotransformation [5]: Compound NOT metabolized
- Bacterial Biotransformation [6]: Compound metabolized
- Bacterial Biotransformation [7]: Compound metabolized
- Bacterial Biotransformation [8]: Compound NOT metabolized
- Bacterial Biotransformation [9]: Compound metabolized

Structure (SMILES): Cc1nc(-c2ccc(OCC(C)C)c(C#N)c2)sc1C(=O)O [FEBUXOSTAT]
- Bacterial Biotransformation [1]: Compound NOT metabolized
- Bacterial Biotransformation [2]: Compound metabolized
- Bacterial Biotransformation [3]: Compound metabolized
- Bacterial Biotransformation [4]: Compound metabolized
- Bacterial Biotransformation [5]: Compound metabolized
- Bacterial Biotransformation [6]: Compound metabolized
- Bacterial Biotransformation [7]: Compound NOT metabolized
- Bacterial Biotransformation [8]: Compound NOT metabolized
- Bacterial Biotransformation [9]: Compound metabolized

Structure (SMILES): CC(C)(C(=O)O)c1ccc(C(O)CCCN2CCC(C(O)(c3ccccc3)c3ccccc3)CC2)cc1 (stereo unspecified) [FEXOFENADINE]
- Bacterial Biotransformation [1]: Compound NOT metabolized
- Bacterial Biotransformation [2]: Compound NOT metabolized
- Bacterial Biotransformation [3]: Compound NOT metabolized
- Bacterial Biotransformation [4]: Compound NOT metabolized
- Bacterial Biotransformation [5]: Compound NOT metabolized
- Bacterial Biotransformation [6]: Compound NOT metabolized
- Bacterial Biotransformation [7]: Compound NOT metabolized
- Bacterial Biotransformation [8]: Compound NOT metabolized
- Bacterial Biotransformation [9]: Compound NOT metabolized

Structure (SMILES): OCCN1CCN(CCCN2c3ccccc3Sc3ccc(C(F)(F)F)cc32)CC1 [FLUPHENAZINE]
- Bacterial Biotransformation [1]: Compound metabolized
- Bacterial Biotransformation [2]: Compound metabolized
- Bacterial Biotransformation [3]: Compound metabolized
- Bacterial Biotransformation [4]: Compound metabolized
- Bacterial Biotransformation [5]: Compound NOT metabolized
- Bacterial Biotransformation [6]: Compound metabolized
- Bacterial Biotransformation [7]: Compound metabolized
- Bacterial Biotransformation [8]: Compound metabolized
- Bacterial Biotransformation [9]: Compound metabolized

Structure (SMILES): COc1ccc2c3c1O[C@H]1C[C@@H](O)C=C[C@@]31CCN(C)C2 [GALANTAMINE]
- Bacterial Biotransformation [1]: Compound NOT metabolized
- Bacterial Biotransformation [2]: Compound NOT metabolized
- Bacterial Biotransformation [3]: Compound metabolized
- Bacterial Biotransformation [4]: Compound NOT metabolized
- Bacterial Biotransformation [5]: Compound NOT metabolized
- Bacterial Biotransformation [6]: Compound NOT metabolized
- Bacterial Biotransformation [7]: Compound NOT metabolized
- Bacterial Biotransformation [8]: Compound NOT metabolized
- Bacterial Biotransformation [9]: Compound NOT metabolized

Structure (SMILES): Cc1ccc(S(=O)(=O)NC(=O)NN2CC3CCCC3C2)cc1 (stereo unspecified) [GLICLAZIDE]
- Bacterial Biotransformation [1]: Compound NOT metabolized
- Bacterial Biotransformation [2]: Compound metabolized
- Bacterial Biotransformation [3]: Compound metabolized
- Bacterial Biotransformation [4]: Compound metabolized
- Bacterial Biotransformation [5]: Compound metabolized
- Bacterial Biotransformation [6]: Compound metabolized
- Bacterial Biotransformation [7]: Compound metabolized
- Bacterial Biotransformation [8]: Compound metabolized
- Bacterial Biotransformation [9]: Compound NOT metabolized

Structure (SMILES): COC1=CC(=O)C[C@@H](C)[C@]12Oc1c(Cl)c(OC)cc(OC)c1C2=O [GRISEOFULVIN]
- Bacterial Biotransformation [1]: Compound metabolized
- Bacterial Biotransformation [2]: Compound metabolized
- Bacterial Biotransformation [3]: Compound NOT metabolized
- Bacterial Biotransformation [4]: Compound metabolized
- Bacterial Biotransformation [5]: Compound metabolized
- Bacterial Biotransformation [6]: Compound NOT metabolized
- Bacterial Biotransformation [7]: Compound metabolized
- Bacterial Biotransformation [8]: Compound metabolized
- Bacterial Biotransformation [9]: Compound metabolized

Structure (SMILES): N#Cc1ccc(C(c2ccc(C#N)cc2)n2cncn2)cc1 [LETROZOLE]
- Bacterial Biotransformation [1]: Compound NOT metabolized
- Bacterial Biotransformation [2]: Compound NOT metabolized
- Bacterial Biotransformation [3]: Compound NOT metabolized
- Bacterial Biotransformation [4]: Compound metabolized
- Bacterial Biotransformation [5]: Compound NOT metabolized
- Bacterial Biotransformation [6]: Compound metabolized
- Bacterial Biotransformation [7]: Compound NOT metabolized
- Bacterial Biotransformation [8]: Compound NOT metabolized
- Bacterial Biotransformation [9]: Compound NOT metabolized

Structure (SMILES): CC(Oc1c(Cl)cccc1Cl)C1=NCCN1 (stereo unspecified) [LOFEXIDINE]
- Bacterial Biotransformation [1]: Compound NOT metabolized
- Bacterial Biotransformation [2]: Compound NOT metabolized
- Bacterial Biotransformation [3]: Compound metabolized
- Bacterial Biotransformation [4]: Compound NOT metabolized
- Bacterial Biotransformation [5]: Compound NOT metabolized
- Bacterial Biotransformation [6]: Compound NOT metabolized
- Bacterial Biotransformation [7]: Compound NOT metabolized
- Bacterial Biotransformation [8]: Compound NOT metabolized
- Bacterial Biotransformation [9]: Compound NOT metabolized

Source: ChEMBL document CHEMBL5724914, “Linking interpersonal differences in gut microbiota composition and drug biotransformation activity” (2024)
